Assay results as given in publication PMC9413201, “Covalent Proteomimetic Inhibitor of the Bacterial FtsQB Divisome Complex” (Journal of the American Chemical Society, 2022).
Where two headings read alike, the source gives them in different places.

Key:
E. coli lptD4213 (imp) = assay: Growth assay (OD600) with outer membrane-permeable E. coli lptD4213 (imp); type: cell-based; details: for Δt1/2 (delay in growth compared to DMSO-treated sample): inhibitor c = 50 μM, MOPS medium, 37 °C
Description: Growth assays were performed to assess the in vitro cytotoxicity of peptides. The experiments were executed under sterile conditions. For each assay, 20 mL of fresh MOPS medium was prepared (Teknova Inc MOPS EZ Rich Defined Medium Kit | M2105: 40 mM MOPS, 4 mM Tricine, 0.01 mM FeSO4, 9.5 mM NH4Cl, 0.276 mM […]
MOPS medium with Streptomycin (30 μg/mL) and incubated overnight at 200 rpm and 37°C. The next day, the […]
peptide stocks in DMSO were diluted to four times the desired highest concentration to be measured in MOPS medium. The peptide dilutions were vortexed and briefly centrifuged. 50 μL of MOPS medium was added to each well of a Corning® 96-well Clear Flat Bottom Polystyrene TC-treated Microplate. A twofold dilution series was performed by adding 50 μL of the diluted peptide to the top row, mixing it and taking 50 μL to the next row. At each step the solution was resuspended five times. This was repeated until the last row which was skipped in order to obtain a reference measurement. After 2-3 h, the E.coli lptD4213 (imp) pre-culture was diluted to an OD600 of 0.00005. Then, 50 μL of diluted culture were added to each well and the plate sealed using a lid and parafilm. The OD600 was measured every 15 min over a period of more than 20 h (continuously shaking, 37°C) using a BioTek Synergy H1 plate reader. The obtained data were analyzed and relative growth curves plotted with GraphPad Prism 8. The assays were performed as technical triplicates. A single overnight pre-culture was used to prepare the diluted MOPS culture used in the growth assay. […]

[1] = system: FtsB-mNG localization in E. coli lptD4213 (imp); assay: Localization of FtsB-mNG (fluorescence microscopy); type: cell-based; details: peptide c = 100 μM, 60 min after addition, MOPS rich medium, 37 °C
Description: were incubated for 1 h at 50 °C. The condensates were collected by centrifuging for 10 s. The digests were mixed for a few seconds and transferred to another tube. 0.5 % TFA was added to inactivate trypsin. The samples were […]
E.coli mutant lptD4213 (imp)
MOPS: MOPS EZ Rich Defined Medium Kit M2105 (Teknova).
At the end of the day, the cells
The next day, the cells were grown and diluted […]
objective. […] In all experiments, the cells […]
ex470/40, dic495LP, em525/50).

FtsQ(50–276) [2] = molecular target: T1, FtsQ(50–276) (Escherichia coli, UniProt P06136); type: biochemical, E. coli; set-up: pET16b FtsQ(50˗276), a His6 fusion; made in house; host or cells: Escherichia coli BL21 DE3
T1 sequence (P06136 50-276): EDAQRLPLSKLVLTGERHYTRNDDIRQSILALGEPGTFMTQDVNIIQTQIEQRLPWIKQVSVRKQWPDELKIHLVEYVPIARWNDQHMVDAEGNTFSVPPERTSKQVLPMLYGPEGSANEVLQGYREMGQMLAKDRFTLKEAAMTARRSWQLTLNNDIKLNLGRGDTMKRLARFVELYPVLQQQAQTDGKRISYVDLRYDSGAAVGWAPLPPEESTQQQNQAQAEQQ
Description: 1.5 Protein modification assay
To determine the reactivity of the different modifiers FtsQ(50˗276) was diluted to a concentration of 100 µM in 20 mM NH4HCO3 buffer (pH 7.6, 150 mM NaCl). The individual peptides were diluted to a concentration of 250 μM in the same buffer. Equal volumes of both solutions were mixed and incubated at 37 °C for the given time period (1 h or 3 h). The reaction was quenched using 5x SDS sample buffer (pH 6.8, 1.875 g TRIS-Cl, 25 mL glycerol, 5 g SDS, 12.5 mL β-mercaptoethanol, 0.5 % bromphenol blue and add 50 mL ddH2O). Samples were heated to 96 °C for 2 min and subsequently analysed by 17 % tris/tricine PAGE (15 min at 90 V and then 3:45 h at 150 V). PageRuler™ Prestained Protein Ladder, 10 to 180 kDa (Thermo Scientific™) was used as a ladder.
Staining was performed using standard Coomassie Staining Solution (40 mL EtOH, 0.3 g Coomassie Blue R250, 0.3 g Coomassie Blue G250, ad 100 mL ddH2O.) and then destained using water.
17 % Tris/Tricine gel (2x):
Running gel: 1.6 mL H2O, 5.5 mL AB-mix, 2.5 mL Buffer A, 100 μL 10% APS, 10 μL 1% TEMED Stacking gel: 2.1 mL H2O, 0.5 mL AB-mix, 0.38 mL Buffer A, 50 μL 10% APS, 5 μL 1% TEMED […]
Buffer A (4x) pH 8.45 3M Tris, 0.3 % SDS; Anode Buffer (10x) pH 8.8, 3M Tris; Cathode buffer (10x) 1M Tris, […]

FtsQ(50–276) [3] = molecular target: T1, FtsQ(50–276); details: tryptic digest, LC-MS/MS
Description: μM CaCl2, 50 mM NaCl, traces of (NH4)6Mo7O24, H3BO3, CoCl2, CuSO4, MnCl2 and ZnSO4, 1.32 mM dibasic anhydrous […], 0.20% glucose, 1.5 mM KOH, 0.199 mM adenine, cytosine, uracil and guanine and 0.01 mM to 10 mM amino acids). A preculture of E.coli lptD4213 (imp) was prepared in 5 mL MOPS medium with streptomycin (30 μg/mL), which was grown overnight at 200 rpm and 37°C. The next day, the overnight culture was diluted a thousandfold and grown up to an OD600 of about 0.5 at 200 rpm and 37°C. After 2-3h, the culture was diluted to an OD600 of 0.1. 10 mM peptide stocks in DMSO were subsequently diluted to 200 μM in MOPS medium. For measuring two time points, a total volume of 110 μL peptide dilution was prepared, for 3 timepoints this was 160 μL. For each time point, 50 μL of diluted peptide was added into an Eppendorf tube, to which 50 μL diluted culture was added (final peptide concentration: 100 μM, starting OD600 = 0.05). The tubes were incubated for either 1,3 or 6 h at 200 rpm and 37°C. Then the cells were fixed using 8.3 μL 37% formaldehyde solution in H2O and incubated for 5 min at 200 rpm and 37°C. Subsequently, the mixture was centrifuged at 500 rpm for 5 min, after which the supernatant was discarded. The pellets were redissolved in 7.5 μL PBS buffer and stored at […]
Microscopy slides were prepared by melting 1% Nobel Agarose in MiliQ water in a microwave. 800 μL was dispersed over a well slide, a microscopy slide was put on top and air bubbles were removed. The agar was allowed to cool for 15 min, after which the microscopy slide was removed. The frozen samples were thawed and 3 μL of each sample was added to separate wells, after which a covering glass was put on top. Using an Olympus IX83 microscope with 100 times magnification ocular and phase contrast (halogen lamp wat approximately 7V), the morphology of the cells was investigated. Pictures were taken and subsequently analyzed with ImageJ and the ObjectJ Cell Counter (https://sils.fnwi.uva.nl/bcb/objectj/examples/CellCounter/cellcounter-md/cellcounter.html, accessed on February 2020).
For the MS/MS experiment samples were prepared as follows. The FtsQ(50˗276) stock solution was diluted to 100 μM and the stock of peptide 24fα was diluted to 250 μM with previously used binding buffer (20 mM NH4HCO3 (pH 7.6), 150 mM NaCl). 10 μL of each diluted stock were merged and the resulting mixture incubated over night at 37 °C. Then the samples were mixed with 5x SDS Sample buffer and 2.5 μL/lane loaded on to a 17% tris/tricine PAGE. The gel was run for 15 min at 90 V and 2h at 150 V.
A container of glass was prepared and extensively washed with soda and water. The gel was placed in the container and incubated in fixing solution (50% EtOH, 3% H3PO4) overnight to remove SDS. The next day, the fixing solution was removed and the gel washed with water a couple of times. Colloidal Coomassie staining solution (34% MeOH, 3 % H3PO4, 150 g (NH4)2SO4/L, 1 g/L G250) was added and the gel stained for 2 d. Then the gel was washed 3x for 30 min with water. Then the bands corresponding to modified and unmodified FtsQ were cut out (1 mm3 pieces) from the gel and transferred to original Eppendorf tubes. The gel pieces were washed with 200 μL water by vortex mixing for 30 s. Then the water was discarded. The gel pieces were then washed with 200 μL MeOH:50 mM NH4HCO3 (1:1 v/v) for 1 min with intermittent vortex mixing. The supernatant was discarded and the procedure repeated once. Then the gel pieces were dehydrated for 5 min in 200 μL of ACN: 50 mM NH4HCO3 (1:1 v/v) with intermittent vortex mixing. The supernatants were discarded and 200 μL of 100 % ACN added, mixed and incubated for 30 s. The samples were dried in a SpeedVac (appr. 5 min). They were then […]
rehydrated in 20 μL of 12 ng/μL Trypsin in 0.01% ProteaseMAX surfactant (Promega): 50 mM NH4HCO3 (Trypsin gold stock 1 μg/μl from Promega, high thermostability) for 10 min (2 μL to 200 μL) and overlayed with […]

[4] = OD600 every 15 min over 22 h, n = 3 technical replicates

A6NELSBTRPG6mFY (sidechain bridge or staple) [15fα, 24fα lacking seven N-terminal and two C-terminal amino acids; negative control peptide]
lowest concentration with inhibitory effect on growth (E. coli lptD4213 (imp); concentration-dependent effect on growth after 15 h, highest tested concentration 100 μM, n = 3 replicates): > 100 µM | inhibitory activity on bacterial growth (OD600) (E. coli lptD4213 (imp); inhibitor c = 25 μM, OD600 every 15 min over 22 h, n = 3 technical replicates): did not exhibit inhibitory activity | FtsB-mNG midcell localization [1]: regular accumulation of FtsB-mNG at the midcell

A6NELSBTRPG6mFYRL (sidechain bridge or staple) [17fγ, vinyl sulfone-modified 17-mer macrocyclic scaffold]
Δt1/2 (delay in growth compared to DMSO-treated sample) (E. coli lptD4213 (imp); [4]): 4.5 h | specificity of FtsQ(50–276) modification (number of up-shifted bands) (FtsQ(50–276) [2]): two up-shifted bands

A6NELSBTRPG6mFYRL (sidechain bridge or staple) [17fδ, dichlorotriazin-modified 17-mer macrocyclic scaffold]
Δt1/2 (delay in growth compared to DMSO-treated sample) (E. coli lptD4213 (imp); [4]): 5.7 h

QEALEERA6NELSBTRPG6mFYRL (sidechain bridge or staple) [24fα]
Δt1/2 (delay in growth compared to DMSO-treated sample) (E. coli lptD4213 (imp); [4]): 3.6 h | count ratio 24fα-modified / unmodified FtsQ, ID 2 HYTRNDDIR (FtsQ(50–276) [3]): 1.60 | count ratio 24fα-modified / unmodified FtsQ, ID 3 […](*) (FtsQ(50–276) [3]): 0.43 | count ratio 24fα-modified / unmodified FtsQ, ID 4 K/QWPDELK/[…] (FtsQ(50–276) [3]): 1.01 | count ratio 24fα-modified / unmodified FtsQ, ID 5 […](*) (FtsQ(50–276) [3]): 1.20 | count ratio 24fα-modified / unmodified FtsQ, ID 6 […]/EMGQMLAK(*) (FtsQ(50–276) [3]): 1.00 | count ratio 24fα-modified / unmodified FtsQ, ID 7 DRFTLK (FtsQ(50–276) [3]): 1.03 | count ratio 24fα-modified / unmodified FtsQ, ID 8 EAAMTAR* (FtsQ(50–276) [3]): 0.62 | count ratio 24fα-modified / unmodified FtsQ, ID 9 R/[…] (contains K208) (FtsQ(50–276) [3]): 1.13 | count ratio 24fα-modified / unmodified FtsQ, ID 10 LNLGR/GDTMK/R (contains K218) (FtsQ(50–276) [3]): 0.56 | count ratio 24fα-modified / unmodified FtsQ, ID 11 […]/R (contains K239) (FtsQ(50–276) [3]): 0.20 | count ratio 24fα-modified / unmodified FtsQ, ID 12 ISYVDLR (FtsQ(50–276) [3]): 1.24 | count ratio 24fα-modified / unmodified FtsQ, ID 13 […] (FtsQ(50–276) [3]): 2.47 | count ratio 24fα-modified / unmodified FtsQ, ID 1 LVLTGER (FtsQ(50–276) [3]; peptide 125 μM + FtsQ 50 μM overnight 37 °C): 1.17 | covalent labeling of FtsQ(50–276) (up-shifted band) (FtsQ(50–276) [2]; peptide 125 μM, FtsQ(50–276) 50 μM, 20 mM NH4HCO3 pH 7.6, 150 mM NaCl, 37 °C, 1 or 3 h): showed labeling of FtsQ(50–276)

QEALEERA6NELSBTRPG6mFYRL (sidechain bridge or staple) [24fβ]
Δt1/2 (delay in growth compared to DMSO-treated sample) (E. coli lptD4213 (imp); [4]): 1.7 h | covalent labeling of FtsQ(50–276) (up-shifted band) (FtsQ(50–276) [2]; pH 7.6): showed labeling of FtsQ(50–276)

QEALEERA6NELSBTRPG6mFYRL (sidechain bridge or staple) [24fγ, vinylsulfon-modified macrocyclic 24f, N-acetylated]
specificity of FtsQ(50–276) modification (number of up-shifted bands) (FtsQ(50–276) [2]): multiple up-shifted bands | covalent labeling of FtsQ(50–276) (up-shifted band) (FtsQ(50–276) [2]; pH 7.6): showed labeling of FtsQ(50–276)

QEALEERA6NELSBTRPG6mFYRL (sidechain bridge or staple) [24fδ]
Δt1/2 (delay in growth compared to DMSO-treated sample) (E. coli lptD4213 (imp); [4]): 4.1 h | covalent labeling of FtsQ(50–276) (up-shifted band) (FtsQ(50–276) [2]; pH 7.6): showed labeling of FtsQ(50–276)
